These results are taken from ChEMBL document CHEMBL4229447, “Synthesis and evaluation of thiomannosides, potent and orally active FimH inhibitors” (Bioorg Med Chem Lett, 2018).

Molecules are shown by their SMILES. Values after ≈ are worked out from the molar mass of the structure shown. Active and inactive are the calls of the source. The rule behind the calls is not given here. Bounds are passed on as bounds.

Data set [1] in a line: Oral bioavailability in mouse at 10 mg/kg. The format is ADME, organism-based. Particulars: in vivo.
Data set [2] in a line: Drug excretion in mouse urine at 10 mg/kg, po or 2 mg/kg, iv. It is filed as ADME, organism-based. The note with it: read-out: Drug excretion.
Data set [3] is described as follows: Lipophilicity, log D of the compound at pH 7.4. The note with it: buffer. The format is physicochemical.
Data set [4] is described as follows: Solubility of the compound in pH 6.8 JP2 buffer. The format is physicochemical.
Data set [5] is described as follows: Metabolic stability in mouse liver microsomes after 30 mins. It is filed as ADME, microsome. The note with it: read-out: Stability.
Data set [6] in a line: Permeability of the compound by PAMPA. It is filed as ADME. Particulars: read-out: permeability. On the technique in general: In PAMPA a lipid-coated filter parts donor from acceptor wells.
Data set [7] deals with Type 1 fimbrin D-mannose specific adhesin (Escherichia coli K-12) (UniProt P08191). As to the kind of experiment: Inhibition of Escherichia coli UTI89 FimH assessed as reduction in […] guinea pig erythrocyte hemagglutination titer.
Chain of Type 1 fimbrin D-mannose specific adhesin (Escherichia coli K-12) (P08191 whole entry): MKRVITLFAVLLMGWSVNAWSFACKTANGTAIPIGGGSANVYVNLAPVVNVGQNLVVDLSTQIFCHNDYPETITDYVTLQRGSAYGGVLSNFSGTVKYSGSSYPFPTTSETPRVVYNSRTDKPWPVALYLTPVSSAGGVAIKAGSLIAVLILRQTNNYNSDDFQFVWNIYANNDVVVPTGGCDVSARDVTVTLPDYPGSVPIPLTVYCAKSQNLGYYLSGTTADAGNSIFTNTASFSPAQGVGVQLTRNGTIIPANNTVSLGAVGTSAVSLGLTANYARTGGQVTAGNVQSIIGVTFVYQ
Another data set addresses hERG (KCNH2) (Homo sapiens, UniProt Q12809). The data set can be described thus: Inhibition of human ERG at 100 uM relative to control.
The test system of data set [8] is Escherichia coli. As to the kind of experiment: Antibacterial activity against Escherichia coli UTI89 in mouse prophylactic UTI model assessed as reduction in bacterial count in urinary bladder at 1 to 100 mg/kg, po administered 30 mins prior to infection measured at 2 and 24 hrs post infection. It is filed as functional, organism-based.
The test system of another data set is Mus musculus. As to the kind of experiment: Time at which simulated urine concentration stays above its HAI titer in mouse at 1 to 100 mg/kg, po. Particulars: in vivo. The format is ADME, organism-based.
Data set [9] concerns Escherichia coli. The data set can be described thus: Antibiofilm activity against Escherichia coli UTI89 preformed biofilms. It is filed as functional, organism-based.
The nature of data set [10]: Mechanism based inactivation of CYP450 (unknown origin). The format is ADME. Particulars: human.
Data set [11] deals with Escherichia coli. The data set can be described thus: Antibiofilm activity against Escherichia coli UTI89. The format is functional, organism-based.

Chain of hERG (KCNH2) (Q12809 whole entry): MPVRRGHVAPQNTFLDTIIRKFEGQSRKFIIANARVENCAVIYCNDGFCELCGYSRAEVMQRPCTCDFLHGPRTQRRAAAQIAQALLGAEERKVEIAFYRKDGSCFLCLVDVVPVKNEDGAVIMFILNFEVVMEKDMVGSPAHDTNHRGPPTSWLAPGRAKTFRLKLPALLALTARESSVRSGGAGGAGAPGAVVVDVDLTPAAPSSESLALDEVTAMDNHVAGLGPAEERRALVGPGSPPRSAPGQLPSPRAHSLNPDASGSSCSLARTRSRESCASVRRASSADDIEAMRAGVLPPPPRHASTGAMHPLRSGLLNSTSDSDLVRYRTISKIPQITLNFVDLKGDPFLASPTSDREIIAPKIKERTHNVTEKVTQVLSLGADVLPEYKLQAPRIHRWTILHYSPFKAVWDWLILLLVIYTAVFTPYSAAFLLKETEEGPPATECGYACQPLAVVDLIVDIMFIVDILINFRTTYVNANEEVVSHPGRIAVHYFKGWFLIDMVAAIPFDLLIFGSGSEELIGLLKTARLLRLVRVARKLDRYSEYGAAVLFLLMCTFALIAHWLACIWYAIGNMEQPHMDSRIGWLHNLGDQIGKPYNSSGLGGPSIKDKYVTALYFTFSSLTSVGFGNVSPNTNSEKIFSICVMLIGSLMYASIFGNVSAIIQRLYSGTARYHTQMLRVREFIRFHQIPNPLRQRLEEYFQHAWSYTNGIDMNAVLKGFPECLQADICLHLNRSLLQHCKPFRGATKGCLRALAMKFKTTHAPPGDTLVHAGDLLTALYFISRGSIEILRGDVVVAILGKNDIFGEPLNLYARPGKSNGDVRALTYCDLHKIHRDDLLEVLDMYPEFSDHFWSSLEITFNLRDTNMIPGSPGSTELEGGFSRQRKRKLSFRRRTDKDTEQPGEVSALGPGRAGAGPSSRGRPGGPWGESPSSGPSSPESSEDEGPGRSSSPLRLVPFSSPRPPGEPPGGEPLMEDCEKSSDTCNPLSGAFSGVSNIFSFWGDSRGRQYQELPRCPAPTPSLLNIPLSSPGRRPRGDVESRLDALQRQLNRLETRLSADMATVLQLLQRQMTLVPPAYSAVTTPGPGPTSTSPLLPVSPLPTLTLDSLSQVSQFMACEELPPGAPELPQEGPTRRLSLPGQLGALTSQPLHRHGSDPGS

As for `Cc1cc(-c2ccc(=O)n(-c3ccccc3)c2)ccc1S[C@H]1O[C@H](CO)[C@@H](O)[C@H](O)[C@@H]1O`, the bioavailability (commonly dose-corrected exposure relative to a reference, in per cent) in [1] came to 15%. In addition, in data set [2], the dose excreted was 24%. For the same molecule, the pH-dependent lipophilicity (logD) (usually the decadic logarithm of the distribution of all forms, ionised or not, between an organic phase and buffer at a given pH) in data set [3] was found to be 1.2. The solubility (in general, the concentration that dissolves in the medium under given conditions) in data set [4] was 142 µg/mL (≈ 312 µM). In addition, in data set [5], the remaining at 0.5 h is 93%. Besides, the Papp in [6] is no more than 12 ×10⁻⁶ cm/s. Moreover, in data set [7], the EC90 (commonly the concentration needed for an effect of 90%) came to 1.25 µM.
Molecule `CCCCn1ccc(-c2ccc(S[C@H]3O[C@H](CO)[C@@H](O)[C@H](O)[C@@H]3O)c(C)c2)cc1=O` returned a bioavailability in data set [1] of 1%. This molecule returned a logD in [3] of 1.8. The same molecule had a solubility in data set [4] of 582 µg/mL (≈ 1340 µM). In data set [5], the remaining at 0.5 h was 60%. Besides, the Papp in data set [6] was no more than 12 ×10⁻⁶ cm/s. The EC90 in data set [7] amounted to 0.6 µM.
Regarding `Cc1cc(-c2ccc(=O)n(CC(C)(C)O)c2)ccc1S[C@H]1O[C@H](CO)[C@@H](O)[C@H](O)[C@@H]1O`, the bioavailability in [1] was determined as 0%. The dose excreted in data set [2] came to 5.3%. In addition, the logD in data set [3] came out at 0.5. The solubility in data set [4] was found to be 729 µg/mL (≈ 1610 µM). Besides, the remaining at 0.5 h in data set [5] worked out at 97%. For the same molecule, the Papp in [6] is no more than 12 ×10⁻⁶ cm/s. Besides, the EC90 in [7] turned out to be 1.25 µM.
Molecule `Cc1cc(-c2ccc(N3CCC3)nc2)ccc1S[C@H]1O[C@H](CO)[C@@H](O)[C@H](O)[C@@H]1O` displayed a bioavailability in [1] of 14%. Moreover, in data set [2], the dose excreted is 7%. Also, the pH-dependent lipophilicity (logD) in data set [3] came to 2.1. In data set [4], this molecule registered a solubility of 217 µg/mL (≈ 518 µM). Moreover, in data set [5], the remaining at 0.5 h is 91%. Further, in data set [7], the EC90 worked out at 1.25 µM.
Molecule `Cc1cc(-c2ccc(=O)n(CC(C)C)c2)ccc1S[C@H]1O[C@H](CO)[C@@H](O)[C@H](O)[C@@H]1O` displayed a bioavailability in [1] of 1%. The dose excreted in data set [2] came to 8.1%. Further, in data set [3], the logD turned out to be 1.5. Also, the solubility in [4] is 863 µg/mL (≈ 1980 µM). In [5], the remaining at 0.5 h came out at 95%. In addition, the Papp in data set [6] is no more than 12 ×10⁻⁶ cm/s. Further, the EC90 in data set [7] turned out to be 2.5 µM.
As to `Cc1cc(-c2ccc(=O)n(C)c2)ccc1S[C@H]1O[C@H](CO)[C@@H](O)[C@H](O)[C@@H]1O`, in [3], the logD came out at 0.3. For the same molecule, in [4], the solubility was 719 µg/mL (≈ 1830 µM). Besides, in data set [5], the remaining at 0.5 h is 72%. Moreover, the Papp in data set [6] is no more than 12 ×10⁻⁶ cm/s. Moreover, the EC90 in data set [7] was found to be 1.25 µM.
Regarding `COc1ccc(-c2ccc(S[C@H]3O[C@H](CO)[C@@H](O)[C@H](O)[C@@H]3O)c(C)c2)cn1`, the bioavailability in data set [1] was found to be 86%. Also, the inhibition (in general, the drop in the measured response relative to a control, in per cent) at 100 µM at hERG (KCNH2) was found to be 10.8%. Also, the outcome in the data set on Escherichia coli [8] was Active. For the same molecule, in data set [2], the dose excreted was found to be 2.8%. Besides, the Time entry in the data set on Mus musculus is “<= 24 hr”. The figures for the IC50 in the data set on Escherichia coli [9] and in the data set on Escherichia coli [11] were 0.56 µg/mL (≈ 1.42 µM) and 0.3 µg/mL (≈ 0.762 µM), respectively. Further, in data set [10], the Activity result is “Not Active”. In addition, in data set [3], the logD came to 2.1. Further, in data set [4], the solubility was 663 µg/mL (≈ 1690 µM). In addition, the remaining at 0.5 h in data set [5] was 100%. The Papp in data set [6] lay within 12 to 30 ×10⁻⁶ cm/s. Further, the EC90 in [7] was 0.31 µM.
In [1], `CCCCn1cc(-c2ccc(S[C@H]3O[C@H](CO)[C@@H](O)[C@H](O)[C@@H]3O)c(C)c2)ccc1=O` came in with a bioavailability of 3%. Further, the dose excreted in data set [2] was found to be 7%. Besides, the logD in [3] was 1.7. Besides, in data set [4], the solubility is 740 µg/mL (≈ 1700 µM). For the same molecule, the remaining at 0.5 h in data set [5] is 95%. Also, the Papp in data set [6] was no more than 12 ×10⁻⁶ cm/s. Besides, the EC90 in data set [7] stood at 0.6 µM.
Regarding `CCn1cc(-c2ccc(S[C@H]3O[C@H](CO)[C@@H](O)[C@H](O)[C@@H]3O)c(C)c2)ccc1=O`, the pH-dependent lipophilicity (logD) in [3] was 0.7. In addition, the concentration in solution in data set [4] (solubility) came to 668 µg/mL (≈ 1640 µM). Besides, the remaining at 0.5 h in [5] amounted to 100%. In addition, the Papp in data set [6] was no more than 12 ×10⁻⁶ cm/s. Besides, the EC90 in data set [7] turned out to be 2.5 µM.
`CSc1ccc(-c2ccc(S[C@H]3O[C@H](CO)[C@@H](O)[C@H](O)[C@@H]3O)c(C)c2)cn1`: in data set [1], the bioavailability was determined as 23%. In data set [2], the dose excreted was determined as 11.7%. In [3], this molecule displayed a log distribution coefficient (logD) of 2.3. The solubility in [4] is 150 µg/mL (≈ 366 µM). The remaining at 0.5 h in data set [5] was found to be 61%. In addition, the Papp in [6] is no more than 12 ×10⁻⁶ cm/s. Further, the concentration for an effect of 90% (EC90) in data set [7] stood at 0.6 µM.
